US9062118B2 (priority 2006, dated 2015)
Bridge positions count the residues as written; N and C are the ends. Peptide text beside a SMILES is read from it.

Target: adult mouse muscle nAChR subtype (α1β1εδ) (Mus musculus, UniProt P02716+P04756+P20782)
Test: cell-based

Chain of adult mouse muscle nAChR subtype (α1β1εδ) (P02716 whole entry, looked up): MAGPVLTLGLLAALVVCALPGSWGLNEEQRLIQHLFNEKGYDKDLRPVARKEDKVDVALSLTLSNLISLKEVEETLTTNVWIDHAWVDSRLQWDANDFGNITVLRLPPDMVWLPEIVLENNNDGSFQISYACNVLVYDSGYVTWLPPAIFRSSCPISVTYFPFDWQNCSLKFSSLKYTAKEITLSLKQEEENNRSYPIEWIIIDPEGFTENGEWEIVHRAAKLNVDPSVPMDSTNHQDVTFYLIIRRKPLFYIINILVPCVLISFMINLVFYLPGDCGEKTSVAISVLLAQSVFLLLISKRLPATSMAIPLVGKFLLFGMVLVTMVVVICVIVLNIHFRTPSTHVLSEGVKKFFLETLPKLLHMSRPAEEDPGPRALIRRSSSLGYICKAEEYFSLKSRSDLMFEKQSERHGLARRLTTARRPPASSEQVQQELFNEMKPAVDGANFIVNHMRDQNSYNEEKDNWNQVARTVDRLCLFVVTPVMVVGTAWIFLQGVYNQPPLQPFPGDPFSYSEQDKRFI
Chain of adult mouse muscle nAChR subtype (α1β1εδ) (P04756 whole entry, looked up): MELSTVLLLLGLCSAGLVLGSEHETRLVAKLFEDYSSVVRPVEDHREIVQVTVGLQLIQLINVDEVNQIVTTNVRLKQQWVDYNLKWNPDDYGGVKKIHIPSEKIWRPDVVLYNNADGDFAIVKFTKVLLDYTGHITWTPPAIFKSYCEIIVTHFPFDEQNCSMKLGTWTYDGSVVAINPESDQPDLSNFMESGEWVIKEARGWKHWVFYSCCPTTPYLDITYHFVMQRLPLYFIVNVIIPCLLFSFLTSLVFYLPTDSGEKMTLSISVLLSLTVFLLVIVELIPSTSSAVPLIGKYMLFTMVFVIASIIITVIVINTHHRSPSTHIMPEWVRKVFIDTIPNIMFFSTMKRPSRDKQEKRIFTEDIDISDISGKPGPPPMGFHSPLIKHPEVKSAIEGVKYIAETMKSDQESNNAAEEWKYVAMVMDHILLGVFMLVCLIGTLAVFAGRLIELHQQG
Chain of adult mouse muscle nAChR subtype (α1β1εδ) (P20782 whole entry, looked up): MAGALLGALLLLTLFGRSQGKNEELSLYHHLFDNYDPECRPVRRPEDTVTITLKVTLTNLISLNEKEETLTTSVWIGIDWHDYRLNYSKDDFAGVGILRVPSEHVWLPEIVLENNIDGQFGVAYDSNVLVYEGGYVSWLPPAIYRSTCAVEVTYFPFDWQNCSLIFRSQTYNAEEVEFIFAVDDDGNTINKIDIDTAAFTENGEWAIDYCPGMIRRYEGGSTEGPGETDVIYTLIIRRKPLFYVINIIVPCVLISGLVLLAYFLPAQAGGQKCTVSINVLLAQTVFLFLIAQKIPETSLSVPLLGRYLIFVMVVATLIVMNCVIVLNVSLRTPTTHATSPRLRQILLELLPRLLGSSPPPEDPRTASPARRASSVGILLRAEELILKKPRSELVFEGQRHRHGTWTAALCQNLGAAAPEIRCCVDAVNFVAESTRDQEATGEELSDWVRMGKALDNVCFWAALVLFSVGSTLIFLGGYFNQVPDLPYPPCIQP

SMILES: CC[C@H](C)[C@@H]1NC(=O)CNC(=O)[C@H](C)NC(=O)[C@H](CCCNC(=N)N)NC(=O)[C@@H]2CSSC[C@@H](C(=O)N[C@@H](CCCNC(=N)N)C(N)=O)NC(=O)[C@H](Cc3c[nH]cn3)NC(=O)[C@H](CSSC[C@H](NC(=O)[C@@H](NC(=O)[C@H](CCCNC(=N)N)NC(=O)[C@@H]3CCCN3C(=O)[C@H](CCCNC(=N)N)NC(=O)[C@@H]3CCCN3C(=O)[C@@H](N)Cc3ccccc3)[C@@H](C)CC)C(=O)N[C@@H](CC(N)=O)C(=O)N[C@@H](CC(C)C)C(=O)N[C@@H](C)C(=O)N2)NC(=O)[C@H](Cc2ccccc2)NC(=O)[C@@H]2CCCN2C(=O)[C@H](Cc2ccc(O)cc2)NC(=O)[C@H](CCCCN)NC(=O)[C@H](Cc2c[nH]cn2)NC(=O)CNC1=O [pl14a] (H-FPRPRICNLACRAGIGHKYPFCHCR-NH2; disulfide 7-22, 11-24)
- IC50: 507 nM
